Measured values taken from PMC9361549, “High-affinity SOAT1 ligands remodeled cholesterol metabolism program to inhibit tumor growth” (BMC Medicine, 2022).

T1: SOAT1 (Homo sapiens, UniProt P35610)
T1 sequence (P35610 1-550): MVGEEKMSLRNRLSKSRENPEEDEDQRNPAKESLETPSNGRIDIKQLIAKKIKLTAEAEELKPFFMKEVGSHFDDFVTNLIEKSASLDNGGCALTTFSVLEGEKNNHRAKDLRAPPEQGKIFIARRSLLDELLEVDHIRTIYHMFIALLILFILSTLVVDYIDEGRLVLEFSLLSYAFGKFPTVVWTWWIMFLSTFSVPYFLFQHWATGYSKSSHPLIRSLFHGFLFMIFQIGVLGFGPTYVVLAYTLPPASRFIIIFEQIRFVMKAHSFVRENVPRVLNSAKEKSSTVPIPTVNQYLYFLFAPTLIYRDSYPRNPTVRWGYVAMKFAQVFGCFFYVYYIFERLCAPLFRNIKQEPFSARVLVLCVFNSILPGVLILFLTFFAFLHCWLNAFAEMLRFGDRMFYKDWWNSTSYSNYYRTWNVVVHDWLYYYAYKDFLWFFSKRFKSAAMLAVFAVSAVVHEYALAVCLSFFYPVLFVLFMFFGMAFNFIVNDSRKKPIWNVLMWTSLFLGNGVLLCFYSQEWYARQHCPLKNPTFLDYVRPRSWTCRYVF

B1: sterol O-acyltransferase 1 (SOAT1), human, with a carboxy-terminal 6xHis-tag (enzyme, UniProt P35610-1 1-550, looked up)
chain: T1 sequence (P35610 1-550)
notes: sterol O-acyltransferase 1 (SOAT1), human; NCBI ID 6646) cloned into pCAG; no removal of the His-tag is described; also called SOAT1 protein

Experiments:
SOAT1 [1] = target: T1, SOAT1; test: SPR (Biacore T200, CM5 chip, immobilised SOAT1); format: binding; conditions: PBS running buffer with 5% DMSO; 0.0195 nM to 20 μM
SOAT1 [2] = target: T1, SOAT1; test: SPR single-concentration screen (Biacore T200, CM5 chip, immobilised SOAT1); format: binding; conditions: 100 nmol/L compound; PBS with 5% DMSO; positive control
[3] = target: the molecule itself; test: SEC; Superdex 200 10/300 GL in 25 mM Tris pH 8.0, 150 mM NaCl, 0.02% GDN, after nickel affinity purification; fractions checked by SDS-PAGE

Molecule	KD (SOAT1 [1])	SPR single-concentration screen (Biacore T200, CM5 chip, immobilised SOAT1) (SOAT1 [2])	other results
CN(C)CC[C@H](CSc1ccccc1)Nc1ccc(S(=O)(=O)NC(=O)c2ccc(N3CCN(Cc4ccccc4-c4ccc(Cl)cc4)CC3)cc2)cc1[N+](=O)[O-] [ABT-737]	7.19 E^−7 M		
Cc1cn(-c2cc(NC(=O)c3ccc(C)c(Nc4nccc(-c5cccnc5)n4)c3)cc(C(F)(F)F)c2)cn1 [nilotinib]	2.02E^−7 M		
CCCCCCCCCCC(C)(C)C(=O)Nc1c(OC)cc(OC)cc1OC [CI-976]		including three positive controls: avasimibe, nevanimibe, and CI-976	
CC(C)c1cc(C(C)C)c(CC(=O)NS(=O)(=O)Oc2c(C(C)C)cccc2C(C)C)c(C(C)C)c1 [avasimibe]		including three positive controls: avasimibe, nevanimibe, and CI-976	
Cc1cc(C)c2c(c1)[C@@H](N(Cc1cc(C(F)(F)F)cc(C(F)(F)F)c1)c1nnn(C)n1)CCCN2C[C@H]1CC[C@H](C(=O)O)CC1 [evacetrapib]	3.91 E^−6 M		
B1			stoichiometry N [3]: 2
